What was measured:
SCDase = experiment: Substrate specificity (hydrolysis) of purified SCDase from Pseudomonas sp. TK-4; type: biochemical; conditions: 10 nmol sphingolipid, 2 milliunits enzyme, 37° C. 16 h, 20 mM sodium acetate buffer pH 5.0, 0.8% Triton X-100, TLC
Experimental: (§1) The enzyme activity of the SCDase is assayed in the following manner. To 10 μl of a substrate solution [50 mM acetate buffer solution (pH 6.0) containing 2 mM of asialo GM1 and 0.6% (w/v) of Triton X-100] is added 10 μl of an enzyme solution. After reacting at 37° C. for 30 minutes, the enzyme reaction is ceased by heating the mixture to 100° C. for 3 minutes. Then the reaction mixture is concentrated to dryness with a centrifugal concentrator. Then the obtained concentrate is dissolved in 10 μl of 50% methanol and placed on a TLC plate (silica gel 60; manufactured by Merck & Co., Inc.). After developing with chloroform/methanol/0.02% aqueous solution of CaCl2 (5/4/1 by volume), the sphingolipid is subjected to color development by the orcinol-sulfuric acid method. […] This spot is determined by using a TLC chromatoscanner (Shimadzu CS-9000, manufactured by Shimadzu Corporation) at a wavelength of 540 nm.
Sphingolipids (10 nmol each) were incubated at 37° C. for 16 h with 2 milliunits of the enzyme in 20 μl of 20 mM sodium acetate buffer, pH 5.0, containing 0.8% Triton X-100. The extent of hydrolysis was examined by TLC and calculated.

crude SCDase = experiment: Substrate specificity of crude SCDase (culture supernatant) from Shewanella alga NS-589; type: biochemical; conditions: for Substrate specificity: acting on the substrate, forming the corresponding lysosphingolipid and fatty acid: SCDase produced by Shewanella alga NS-589; for Digestion ratio (%): crude SCDase supernatant, 1.2 mM sphingolipid, acetate buffer pH 6.0, Triton X-100, 37° C. 16 hours, TLC
From the text: Acting on acidic glycolipids (GM1, GM2, GD1a, GD1b, sialosyl paragloboside, etc.), neutral glycolipids (lactosyl ceramide, Gb4, Gb5, etc.), sulfated glycolipids (sulfatide, etc.) and sphingomyelin which is a sphingophospholipid, thus forming the corresponding lysosphingolipid and fatty acid in each case.
The substrate specificity was examined as follows. Shewanella alga NS-589 was inoculated into a synthetic medium (dipotassium hydrogenphosphate 0.05%, ammonium chloride 0.05%, sphingomyelin 0.1%, sodium taurodeoxycholate 0.1%, sodium chloride 2%, 2,6-O-dimethyl-β-cyclodextrin 0.1%; pH 7.4). Two days after shaking cultivation at 30° C., the strain was removed to obtain a supernatant by centrifuge. A 50 mM acetate buffer ([…]; pH 6.0) containing 3 μl of the supernatant and 1.6% Triton X-100 was allowed to react with 5 μl of 1.2 mM of each of sphingolipids shown in Table 2 at 37° C. for 16 hours, and then the resulting mixture was analyzed with a thin layer chromatography.
The digestion ratios of various substrates by a crude SCDase obtained from Shewanella alga NS-589.

[1] = tested on: SCDase derived from the genus Pseudomonas; experiment: Fatty acid exchange reaction on various acceptors by SCDase; type: biochemical; conditions: 1 nmol [1-14C] stearic acid, 1 nmol sphingolipid, 30 μU SCDase, acetate buffer pH 6.0, 0.8% Triton X-100, overnight 37° C., galactosyl ceramide = 100
Experimental: A 10 μl portion of 50 mM acetate buffer (pH 6.0) containing 1 nmol [1−^14C] stearic acid, 1 nmol sphingolipid, 0.8% Triton X-100 and 30 μU SCDase derived from the genus Pseudomonas was allowed to react overnight at 37° C.
The thus obtained reaction solution was developed on thin layer chromatography and exposed to an imaging plate to carry out determination of the reaction product by BAS 1000 Imaging Analyzer (manufactured by Fuji Photo Film).

Pseudomonas sp. TK-4 = experiment: Conversion of glycosphingolipids into lyso-forms by culture of Pseudomonas sp. TK-4; type: cell-based; conditions: PY medium with 0.1% 2,6-O-dimethyl-β-cyclodextrin, glycosphingolipid 0.5 mg/ml (Gb4 0.1 mg/ml), 25° C. shaking 3 days, TLC of supernatant
Experimental: A 60 ml portion of PY medium (polypeptone 0.5%, yeast extract 0.1%, sodium chloride 0.2%; pH 7.2) containing 30 mg of ganglioside GM1 (manufactured by Iatron) and 0.1% of 2,6-O-dimethyl-β-cyclodextrin was sterilized and inoculated with the strain which had been incubated overnight in a slant medium containing 0.1% of crude bovine brain ganglioside prepared in accordance with the method described in Methods in Enzymology, 14:660-664 (1969). Then, the strain was incubated therein under shaking at 25° C. for 3 days.
Then the cells were eliminated by centrifuging the culture medium and thus the culture supernatant was obtained.
PY medium (polypeptone 0.5%, yeast extract 0.1%, sodium chloride 0.2%; pH 7.2) containing 0.1% of 2,6-O-dimethyl-β-cyclodextrin was sterilized in an autoclave and filter-sterilized aqueous solutions of various glycosphingolipids [i.e., GM1, GM2 (manufactured by Matreya), GM3 (manufactured by Iatron), GD1a (manufactured by Iatron), GD1b (manufactured by Iatron), GD3 (manufactured by Iatron), GT1b (manufactured by Biocarb), sulfatide (manufactured by Matreya): each 0.5 mg/ml, Gb4 (manufactured by Iatron): 0.1 mg/ml] were added thereto. Then each medium was inoculated with Pseudomonas sp. TK-4, which had been incubated overnight in a slant medium containing 0.1% of crude bovine brain ganglioside, followed by incubation at 25° C. under shaking for 3 days.
Then the cells were eliminated by centrifuging the culture medium to obtain the culture supernatant which was then analyzed by thin layer chromatography.

[2] = tested on: SCDase derived from the genus Pseudomonas; experiment: Reverse reaction on various acceptors by SCDase-1 ([1-14C] stearic acid); type: biochemical; conditions: 1 nmol [1-14C] stearic acid, 1 nmol lysosphingolipid, 30 μU SCDase, acetate buffer pH 6.0, 0.8% Triton X-100, overnight 37° C., galactosylsphingosine = 100
Experimental: A 10 μl portion of 50 mM acetate buffer (pH 6.0) containing 1 nmol [1-^14C] stearic acid, 1 nmol lysosphingolipid, 0.8% Triton X-100 and 30 μU SCDase derived from the genus Pseudomonas was subjected to overnight reaction at 37° C. The thus obtained reaction solution was developed on thin layer chromatography and exposed to an imaging plate to carry out for determining the reaction product by BAS 1000 Imaging Analyzer (manufactured by Fuji Photo Film).

[3] = tested on: SCDase derived from the genus Pseudomonas; experiment: Reverse reaction on various acceptors by SCDase-2 (N-trifluoroacetylated aminododecanoic acid); type: biochemical; conditions: 66.6 nmol N-trifluoroacetylated aminododecanoic acid, 33.3 nmol lysosphingolipid, 148 μU SCDase, glycine-NaOH pH 11, 0.3% Triton X-100, 48 hours 37° C.
Experimental: A 41.6 μl portion of 25 mM glycine-sodium hydroxide buffer (pH 11) containing 66.6 nmol N-trifluoroacetylated aminododecanoic acid, 33.3 nmol lysosphingolipid, 0.3% Triton X-100 and 148 μU SCDase derived from the genus Pseudomonas was subjected to 48 hours of reaction at 37° C.
The thus obtained reaction solution was developed on thin layer chromatography, a glycosphingolipid was colored with orcinol-sulfuric acid, and other sphingolipids with Coomassie Brilliant Blue, and then determination of the reaction product was carried out by Imaging Densitometer (manufactured by Bio-Rad).

[4] = Enzymological properties of SCDase of Pseudomonas sp. TK-4 (optimum pH, temperature, stability); type: biochemical
Experimental: as §1
One unit (1 U) of activity is defined as the amount of the enzyme liberating 1 μmol of lysoasialo GM1 per minute from asialo GM1 at 37° C. […]
The enzyme of the present invention is maintained at each definite pH value at 5C for 16 hours. After returning the pH value to 6.0, the enzyme activity is measured to thereby examine the pH stability of the enzyme. […]

Molecule | Digestion ratio (%) (SCDase) | Relative activity (%) [1] | Relative activity (%) [2] | other results
lactosyl ceramide [Lac-cer] | 64% | 112.0% |  | Substrate specificity: acting on the substrate, forming the corresponding lysosphingolipid and fatty acid (crude SCDase): Acting on; Digestion ratio (%) (crude SCDase): 19.3%
Galactosyl ceramide [Gal-cer] | 42% | 100.0% |  | 
GD1a | 49% | 6.2% |  | Substrate specificity: acting on the substrate, forming the corresponding lysosphingolipid and fatty acid (crude SCDase): Acting on; Digestion ratio (%) (crude SCDase): 32.6%; Digestion ratio (%) (Pseudomonas sp. TK-4): 100%
Ceramide |  | 77.5% |  | 
CCCCCCCCCCCCC/C=C/[C@@H](O)[C@@H](N)CO[C@@H]1O[C@H](CO)[C@H](O)[C@H](OS(=O)(=O)O)[C@H]1O [Lysosulfatide] |  |  | 59.6% | 
CCCCCCCCCCCCC/C=C/[C@@H](O)[C@@H](N)CO[C@@H]1O[C@H](CO)[C@@H](O[C@@H]2O[C@H](CO)[C@H](O[C@@H]3O[C@H](CO)[C@H](O)[C@H](O[C@@H]4O[C@H](CO)[C@H](O)[C@H](O)[C@H]4O)[C@H]3NC(C)=O)[C@H](O[C@]3(C(=O)O)C[C@H](O)[C@@H](NC(C)=O)[C@H]([C@H](O)[C@H](O)CO)O3)[C@H]2O)[C@H](O)[C@H]1O [Lysoganglioside GM1a] |  |  | 15.4% | Reaction Efficiency (%) [3]: 29%
Gal-GalNAc-Gal-Glc-Cer [Asialo GM1] | 67% | 164.0% |  | 
GT1b |  |  |  | Digestion ratio (%) (crude SCDase): 26.2%; Digestion ratio (%) (Pseudomonas sp. TK-4): 100%
CCCCCCCCCCCCCC=CC(O)C(N)COC1OC(CO)C(OC2OC(CO)C(O)C(OC3(C(=O)O)CC(O)C(NC(C)=O)C(C(O)C(O)CO)O3)C2O)C(O)C1O (stereo not drawn) [Lysoganglioside GM3] |  |  |  | Reaction Efficiency (%) [3]: 24%
CCCCCCCCCCCCC/C=C/[C@@H](O)[C@@H](N)CO [Sphingosine, sphingosine] |  |  | 11.5% | Reaction Efficiency (%) [3]: 69%
GD1b |  | 1.2% |  | Substrate specificity: acting on the substrate, forming the corresponding lysosphingolipid and fatty acid (crude SCDase): Acting on; Digestion ratio (%) (Pseudomonas sp. TK-4): 100%
CCCCCCCCCCCCC/C=C/[C@@H](O)[C@@H](N)CO[C@@H]1O[C@H](CO)[C@@H](O[C@@H]2O[C@H](CO)[C@H](O)[C@H](O)[C@H]2O)[C@H](O)[C@H]1O [Lysolactosyl ceramide] |  |  | 37.2% | 
Glucosyl ceramide [Glc-cer] | 48% | 129.0% |  | 
CCCCCCCCCCCCC/C=C/[C@@H](O)[C@@H](N)CO[C@@H]1O[C@H](CO)[C@H](O)[C@H](O)[C@H]1O [Galactosylsphingosine, galactosylsphingosine] |  |  | 100.0% | 
Sulfatide | 59% | 31.7% |  | Substrate specificity: acting on the substrate, forming the corresponding lysosphingolipid and fatty acid (crude SCDase): Acting on; Digestion ratio (%) (Pseudomonas sp. TK-4): 100%
CCCCCCCCCCCCC/C=C/[C@@H](O)[C@@H](N)COP(=O)([O-])OCC[N+](C)(C)C [Lysosphingomyelin, sphingosylphosphorylcholine] |  |  | 5.7% | 
SCDase (Pseudomonas sp. TK-4): sphingolipid ceramide N-deacylase produced by Pseudomonas sp. TK-4, SEQ ID NO:1 (protein, OTHER INFORMATION: Description of Unknown Or ganism: sphingolipid ceramide N-deacylase) ELGDYGAWKTLLNLTSPPKADNPVRAEQRVGPYPMLANPAGFRSGFTPTAYFAWQTVQLAPETGAVCGDGSPYKFFVNRMPNTSNTLIYMEGGGACWDYASCSGQAGIRGARNPNGIPDDYMKLANPQASLVSPFVVRLHPYSRVKTQGWNIVYIPYCTGDLYAGDKVAVYDDPSGKKPPLVWHHNGLRNGRAVLGWLKDNLERPGQMLSTGCSAGGAGSLISHSVLRQDLAPDRGFLIDDSGPVFSAAVGGDSQTYPSLPLQNLIRSAWGLDQGPLQFLQSRLPGVSLSNLGSLYPALAANFPGDRLGHTHFWQDLNYSSYSYERFYPEIANAPDKATKEALIKAKWQVDTARLRDTLANLPNFGGYFPQYRALNESHCTTIVDFANGDIQEQGLELSHFIDNVLNGQGPVLDASELSDSADRAKPNNLIYDAINKLL |  |  |  | Optimum temperature (maximum activity) ([4]; FIG. 2): about 40 °C; Heat stability: activity sustained ([4]; after treating at 60° C. for 30 minutes, FIG. 4): 90%

From patent US6821761B2, “Sphingolipid ceramide N-deacylase, methods for producing sphingolipids and sphingolipid derivatives, and sphingolipid ceramide N-deacylase gene” (Takara Bio, Inc., priority 1994, dated 2004)
